Results from patent US6491922B1, “Methods and compounds for treating autoimmune and vascular disease” (Cornell Research Foundation, Inc., priority 1996, dated 2002).
Several values for one entry are separate records, joined by “and”; a condition that tells them apart may be missing. Equal values may be shown once. Entries after “also recorded” stand apart in the source; their conditions may differ. Read-outs that look alike come from different tables or passages of the source.

Legend:
ICAM-1 = test: Endotoxin-induced ICAM-1 expression on endothelial cells (FACS); assay type: cell-based, human; conditions: LPG pretreatment 1 h
Description: (§1) Endothelial cells pretreated with LPG at indicated amounts for 1 h were subsequently challenged with endotoxin. Washed cells incubated with monoclonal antibody specific for E-selectin or ICAM-1 were counter stained with fluorescein labeled anti-murine antibody, fixed and analyzed by FACS.

THP-1 cells [1] = test: LPG and LPG fragment binding to THP-1 cells (indirect immunofluorescence, FACS); design: species or system human; conditions: LPG 1 μM
tissue factor = test: Tissue factor production by endothelial cells (one-stage clotting assay); assay type: cell-based, human
Description: Endothelial cell monolayers were pretreated with LPG for 1 hour and stimulated with endotoxin. Cultured endothelial cells, when stimulated by endotoxin, expressed high amounts of tissue factor. […] The production of tissue factor (in culture supernatant) is determined by a one-stage clotting assay. Helin et. al., “Allogeneic Induction of the Human T-cell-instructed Monocyte Procoagulant Response is Rapid and is Elicited by HLA-DR,” J. Exp. Med. 158: 962-75 (1983), which is hereby incorporated by reference.
To further examine if LPG can inhibit other endothelial cell functions, it was determined whether LPG inhibits thrombosis. Since thrombosis is mediated by the release of tissue factor (“TF”) by endothelial cells, the ability of LPG to inhibit TF production was evaluated. Cultured endothelial cells when stimulated by endotoxin express TF as determined by a one-stage clotting assay. Helin et. al., “Allogeneic Induction of the Human T-cell-instructed Monocyte Procoagulant Response is Rapid and is Elicited by HLA-DR,” J. Exp. Med. 158: 962-75 (1983), which is hereby incorporated by reference. […] To explore whether this effect was agonist specific, another agonist, TNF-α which is known to up-regulate TF generation, was used.

U1 and ACH-2 cells = test: Cell viability and proliferation (bromo-deoxy-uridine incorporation) of HIV-infected cell lines; assay type: cell-based, human
[2] = test system: DNA sequence from the −310 to −57 region of the IL-1β promoter; test: Gel shift assay of nuclear protein binding to IL-1β promoter DNA; assay type: cell-based, human; conditions: THP-1 cells treated with LPG; preliminary data
[3] = test system: human umbilical vein endothelial cells; test: LPG and LPG fragment binding to endothelial cells (indirect immunofluorescence, FACS); conditions: LPG 1 μM
IL-1β promoter = assay type: cell-based, human; conditions: for suppression of endotoxin-induced CAT activity: LPG 2 μM 1 h; for suppression of LPS-induced CAT activity: 2 μM LPG 2 h
[4] = test system: HIV p24 antigen, U1 cells; test: HIV p24 antigen production in chronically HIV-infected U1 cells; assay type: cell-based; conditions: 72 h
Description: LPG, the major surface molecule of Leishmania, has macrophage deactivating functions. Based on the ability of LPG to suppress the generation of ROI and cytokine gene expression, we evaluated the potential that LPG may similarly suppress HIV production. FIGS. 27A-D illustrate the effect of 2 μM LPG pretreatment for 2 h on the induction HIV from chronically HIV-infected monocytic and T cell lines respectively, U1 and ACH-2 cells. LPG treatment of U1 cells for 72 h inhibited basal production of HIV p24 antigen at basal and induction in response to PMA, TNF-α and LPS by 90%, 82%, 60% and 66%, respectively (FIGS. 27A, B). The suppression of HIV p24 antigen production was time-dependent (FIG. 27B). […] The inhibition was also time-dependent. The results are the mean of 2 separate experiments and the SD was less than 10%.

GAPDH mRNA = test: GAPDH control transcript (Northern analysis, nuclear run-off); assay type: cell-based, human
E-selectin = test: Endotoxin-induced E-selectin expression on endothelial cells (FACS); assay type: cell-based, human; conditions: LPG pretreatment 1 h
Description: as §1

endothelial cells [5] = test: Endothelial adhesion to monocytes (MM6) assay
Description: Endothelial cell were isolated from human umbilical veins by an established method as described. […] In all experiments, 2-4 passages of subcultured endothelial cells were used and were grown on fibronectin-precoated 96-well plates for 2-3 days prior to use.
On the day of the experiment, endothelial cells were treated with endotoxin (E. coli, J5, 10 ng/ml) for 4 h. MM6 (1×10^5 cells) were subsequently added to the endotoxin-stimulated endothelial cells. Monocyte adhesion was performed for 20 min at 37° C. Unbound MM6 cells were removed by washing (3×). Adhesion of MM6 onto endothelium was quantitated by counting the bound MM6 cells under a microscope. […] The values of triplicates were averaged, and variations between triplicates were <5%. […] For experiments to examine if LPG could inhibit endotoxin-mediated monocyte adhesion, the endothelial cells were first preincubated with LPG (2 μM) for 1-2 h at 37° C. prior to the addition of endotoxin.

IL-1β mRNA = test: Northern analysis of IL-1β mRNA induction in THP-1 cells; conditions: for amount of IL-1β mRNA in response to LPS: LPS 2 μg/ml 4 h
Description: Human monocytes were cultured in endotoxin free complete medium as previously described. […] THP-1 cells were maintained in RPMI-1640 supplemented with 2 mM L-glutamine, 100 U/ml penicillin-streptomycin, 5×10^−5 M β-mercaptoethanol, and 10% heat-inactivated fetal bovine serum (FBS). For experiments to determine the effect of LPG, THP-1 cells (10×10^6 per condition) were washed with RPMI 1640 and resuspended in complete medium composed of RPMI-1640 supplemented with 2 mM L-glutamine, 100 U/ml penicillin and 100 μg/ml streptomycin. These cells were cultured in 24-well plates with or without 0.01 to 2 μM LPG (0.1 to 20 μg/ml) for different times either before (−h), simultaneously with (0 h) or after (+h) the addition of inducers of IL-1β (eg., LPS, TNF-α, or S. epidermidis). Peripheral blood monocytes enumerated after detachment using a rubber policeman were similarly treated or not with LPG and cultured with stimuli. Cell were stimulated with 0.1 to 3 μg/ml LPS, TNF-α (50 ng/ml), 25 to 50 ng/ml PMA for 4 to 24 h, or opsonized heat-killed S. epiderimidis at ratio of 10 particles per cell.
Cells treated with or without LPG and/or inducers of IL-1β were harvested by gentle scrapping using a rubber policeman and sedimented by centrifugation at 500 g for 5 minutes in a microfuge. Total RNA was extracted using RNA STAT-60 solution (TEL-TEST “B” Inc., Friendswood, Tex.), based on a single step method for RNA isolation (P. Chomczynski and N. Sacchi, “Single-step Method of RNA Isolation by Acid Guanidinium Thiocyanate-phenol-chloroform Extraction,” Anal. Biochem., 162:156-59 (1987), hereby incorporated by reference), and quantitated by spectrophotometry. Equal amount of total RNA (15-20 μg per sample) was denatured, loaded onto 1.2% agarose-formaldehyde gel, run for 4 h at 30 volts and subsequently transferred by capillary action onto nylon membrane (0.45 μm pore size, NYTRAN, S&S, Keene, N.H.). Membranes were prehybridized at 42° C. for 4 h in prehybridization buffer (50% formamide, 6×SSPE, and 0.5% SDS), and hybridized in hybridization buffer (50% formamide, 6×SSPE, and 5 SDS) containing 10-15×10^6 cpm of random-priming ^32p-labeled IL-1β cDNA (Boehringer Mannheim GmbH, Mannheim, Germany). […] Washed membranes were exposed to KODAK X-OMAT AR films for 24 to 72 h and to phosphor screens (Molecular Dynamics Ltd., Kent, Tenn.) for 24-28 h. Quantitative analysis of the specific bands was performed using Phosphor Imager Analyzer. […] All percent suppression of IL-1β mRNA values were normalized by the amount of GAPDH present in each condition which varied less than 10% between conditions because equivalent amounts of total RNA were loaded for electrophoresis.

endothelial cells [6] = test: ^3H-lyso-PI binding to endothelial cells; design: species or system human; conditions: cold-LPG competition at 20×molar excess; n=2
Description: To evaluate whether lyso-PI may directly bind to endothelial cells, endothelial cells (10^6 per ml) were incubated with ^3H-lyso-PI (1 μM [specific activity, ˜10,000 cpm/nmole], 45 min, 25° C.). As a control, endothelial cells were pretreated with LPG (20 μM, 15 min, 25° C.) before the incubation with ^3H-lyso-PI. Following incubation, the cell suspension was layed onto silicone oil (Silicones FC-50, General Electric, Waterford, N.Y.) and cell-bound ^3H-lyso-PI was separated from free-^3H-lyso-PI by centrifugation (10,000 g, 10 min, room temperature). The amount of ^3H-lyso-PI in the cell pellet and in the supernatant were solubilized in Ecoscint (National Diagnostics, Highland Park, N.J.) and quantitated by a β-emission counter (Beckman Instruments, Palo Alto, Calif.).

TNF-α mRNA = TNF-α mRNA expression and stability after endotoxin; assay type: cell-based, human
THP-1 cells [7] = test: THP-1 cell viability; assay type: cell-based, human; conditions: LPG 0.01 to 2 μM, data not shown
VCAM-1 = test: Endotoxin-induced VCAM-1 expression on endothelial cells (FACS); assay type: cell-based, human

## lipophosphoglycan [LPG]
ICAM-1
  effect on endotoxin-mediated expression of ICAM-1: strongly suppressed; also recorded: blockage or suppression
THP-1 cells [1]
  time at which LPG binding was obvious: 16 min
THP-1 cells [1]; 1 h
  LPG binding: significant LPG was bound
Tissue factor
  effect on TNF-α induction of endothelial cell production of TF: no effect
Tissue factor; LPG 2 μM
  effect on endotoxin-induction of TF: completely abrogated
Tissue factor; LPG pretreatment 1 hour
  effect on endotoxin induction of TF production: dose-dependent inhibition
U1 and ACH-2 cells; cells treated or not treated with LPG
  percentages of viable cells: 98%
U1 and ACH-2 cells; each of the stimulation conditions
  effect on cell proliferation (bromo-deoxy-uridine incorporation): did not alter
[2]
  induction of nuclear protein(s) binding to promoter DNA sequence: induced the presence of a nuclear protein(s) that bound a DNA sequence derived from this region
[3]
  time at which LPG binding was obvious: 16 min
[3]; 1 h
  LPG binding: significant LPG was bound
IL-1β promoter; IL-1β promoter deleted to −57
  LPG's inhibitory activity on LPS-induced CAT activity: completely abrogated; also recorded: no LPG inhibitory activity
IL-1β promoter; IL-1β promoter truncated to −131
  suppression of CAT activity: 7%+1% and 7%
IL-1β promoter; deletional mutant X2-HT-CAT (−3757 to −2729 linked to −131 to +11)
  suppression of endotoxin-induced CAT activity: 8%+4% and 8%
IL-1β promoter; full-length −3757 to +11 construct (XT-CAT), n=5
  suppression of endotoxin-induced CAT activity: 50%+5%
IL-1β promoter; medium with 2.5% or 5% FBS, LPG 2 μM 2 h, LPS 2 μg/ml
  effect on endotoxin-activation of IL-1β promoter activity in presence of serum: suppresses; also recorded: similar
IL-1β promoter; plasmid with −310/+15 promoter sequence, LPS 2 μg/ml
  suppression of LPS-induced CAT activity: approximately 40%
IL-1β promoter; plasmid with −680/+15 promoter sequence, LPS 2 μg/ml
  suppression of LPS-induced CAT activity: approximately 40%
IL-1β promoter; plasmid with −1110/+15 promoter sequence, LPS 2 μg/ml
  suppression of LPS-induced CAT activity: approximately 40%
[4]; 2 μM LPG pretreatment 2 h
  inhibition of HIV p24 antigen induction in response to LPS: 66%
  inhibition of HIV p24 antigen induction in response to PMA: 82%
  inhibition of HIV p24 antigen induction in response to TNF-α: 60%
[4]; 2 μM LPG
  inhibition of basal production of HIV p24 antigen: 90%
GAPDH mRNA; THP-1, Northern analysis
  effect on constitutive transcription of GAPDH mRNA: not affected; also recorded: no effect
GAPDH mRNA; nuclear run-on assay (Example 35)
  effect on GAPDH transcription: no effect
E-selectin
  effect on endotoxin-mediated expression of E-selectin: strongly suppressed; also recorded: blockage or suppression
Endothelial cells [5]; 2 μM LPG pretreatment, endotoxin 10 ng/ml 4 h
  inhibition of endotoxin-mediated monocyte adhesion (dose-dependent 0.01 μM to 2 μM): completely inhibiting
Endothelial cells [5]; IL-1β 100 U/ml, n=4
  effect on IL-1β-mediated endothelial cell adhesion: lack of LPG inhibitory activity
Endothelial cells [5]; LPG 2 μM, 2 h pretreatment, endotoxin 10 ng/ml 4 h
  inhibition of endotoxin-mediated monocyte adhesion (time-dependent): completely abrogating
Endothelial cells [5]; LPG plus TNF-α, TNF-α alone 1,750±100, basal 100±50, n=6
  TNF-α-mediated endothelial adhesion to monocytes: 1,650±130 cell/mm^2
Endothelial cells [5]; endothelial cells
  minimal pretreatment time required for inhibition of endotoxin-mediated monocyte adhesion: 15 to 30 min
Endothelial cells [5]; n=6
  effect on TNF-α-mediated endothelial adhesion to monocytes: did not affect
Endothelial cells [5]; read-out: half-maximal inhibitory concentration, endotoxin-mediated monocyte adhesion
  IC50: ~600 nM
IL-1β mRNA; LPG added simultaneously with the endotoxin
  effect on IL-1β mRNA expression in monocytes: exerted an inhibitory effect
IL-1β mRNA; THP-1, 1 or 2 μM LPG 2 h, washed twice, then LPS 4 h
  effect of washing to remove LPG on LPG's ability to suppress LPS induction of IL-1β mRNA: no effect
IL-1β mRNA; THP-1, LPG 2 μM added between 2 h before to 1 h after LPS 2 μg/ml
  suppression of LPS induction of IL-1β mRNA: greater than 90%
IL-1β mRNA; THP-1, LPG 2 μM pretreatment 2 h, TNF-α 50 ng/ml, mean±SD, N=5
  inhibition of TNF-α induced IL-1β mRNA: approximately 50%±10%
IL-1β mRNA; THP-1, LPG 2 μM pretreatment for 2 h, N=3
  inhibition of S. epidermidis-induced IL-1β mRNA: 30±10%
IL-1β mRNA; THP-1, LPG 2 μM simultaneous with opsonized S. epidermidis, N=3
  suppression of S. epidermidis-induced IL-1β mRNA: greater than 80±19%
IL-1β mRNA; THP-1, LPG 2 μM, PMA 25 or 50 ng/ml, N=3
  suppression of PMA induction of IL-1β mRNA: did not suppress
IL-1β mRNA; THP-1, LPG 1 or 2 μM added 4 h before LPS 2 μg/ml
  inhibitory activity on LPS induction of IL-1β mRNA: lost
IL-1β mRNA; THP-1, LPG 2 h after S. epidermidis induction
  effect on S. epidermidis-induced IL-1β mRNA: minimal to no demonstrable effect
IL-1β mRNA; THP-1, LPG added +2 h after LPS stimulation
  suppression of IL-1β mRNA: 70%
IL-1β mRNA; THP-1, pretreated 2 h with 1 μM LPG
  amount of IL-1β mRNA in response to LPS: lower amounts of IL-1β mRNA
IL-1β mRNA; THP-1, pretreated 2 h with 2 μM LPG
  amount of IL-1β mRNA in response to LPS: little or no IL-1β mRNA detected
IL-1β mRNA; THP-1, pretreated 2 h with LPG 0.01 to 2.0 μM, LPS 0.1 to 3 μg/ml
  maximum inhibition of IL-1β mRNA (dose-dependent): greater than 90%
IL-1β mRNA; THP-1, pretreatment with LPG 2 μM, endotoxin 2 μg/ml
  inhibition of endotoxin-mediated IL-1β mRNA production: completely inhibited
Endothelial cells [6]
  inhibition of ^3H-lyso-PI binding: 29±3%
TNF-α mRNA; LPG added 2 h after endotoxin
  effect on endotoxin induction of TNF-α expression: effective
TNF-α mRNA; LPG added 4 h prior to addition of endotoxin
  effect on endotoxin induction of TNF-α expression: significantly suppressed
TNF-α mRNA; actinomycin D, data not shown
  effect on TNF-α mRNA stability: minimal effect
THP-1 cells [7]
  effect on cell viability: not affected
VCAM-1
  effect on endotoxin-mediated expression of VCAM-1: strongly suppressed
